Reference: US20060257543A1, “Molecules comprising linked organic moieties as flavor modifiers for comestible compositions” (priority 2005, published 2006)
Where two headings read alike, the source gives them in different places.

Molecular target: T1, hT1R2/hT1R3 sweet receptor expressed in an HEK293 cell line (Homo sapiens, UniProt Q7RTX0+Q8TE23)
T1 construct: expressed in transfected cells; host or cells: HEK293 derivative, clone S-9
T1 sequence (Q8TE23 20-839): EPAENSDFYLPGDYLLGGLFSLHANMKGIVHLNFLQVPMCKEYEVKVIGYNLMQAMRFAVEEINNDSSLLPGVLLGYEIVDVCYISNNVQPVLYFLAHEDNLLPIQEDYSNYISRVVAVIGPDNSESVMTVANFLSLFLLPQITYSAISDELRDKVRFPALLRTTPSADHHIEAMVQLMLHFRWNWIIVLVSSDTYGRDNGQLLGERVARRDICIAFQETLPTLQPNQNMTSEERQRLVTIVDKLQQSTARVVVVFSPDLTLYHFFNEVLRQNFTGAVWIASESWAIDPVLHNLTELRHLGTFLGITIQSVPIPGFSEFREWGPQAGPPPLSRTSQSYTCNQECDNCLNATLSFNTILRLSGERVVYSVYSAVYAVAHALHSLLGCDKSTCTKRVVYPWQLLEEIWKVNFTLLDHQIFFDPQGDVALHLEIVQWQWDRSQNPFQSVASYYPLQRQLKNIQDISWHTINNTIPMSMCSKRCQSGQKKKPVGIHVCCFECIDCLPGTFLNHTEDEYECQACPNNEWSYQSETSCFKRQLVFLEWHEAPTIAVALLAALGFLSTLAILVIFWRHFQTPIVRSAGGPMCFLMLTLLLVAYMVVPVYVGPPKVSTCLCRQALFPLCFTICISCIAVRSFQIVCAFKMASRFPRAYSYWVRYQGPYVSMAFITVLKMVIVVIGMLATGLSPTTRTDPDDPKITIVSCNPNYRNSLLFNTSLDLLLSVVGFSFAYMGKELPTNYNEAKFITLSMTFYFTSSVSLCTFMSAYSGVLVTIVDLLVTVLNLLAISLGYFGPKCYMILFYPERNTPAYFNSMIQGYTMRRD
T1 sequence (Q7RTX0 21-852): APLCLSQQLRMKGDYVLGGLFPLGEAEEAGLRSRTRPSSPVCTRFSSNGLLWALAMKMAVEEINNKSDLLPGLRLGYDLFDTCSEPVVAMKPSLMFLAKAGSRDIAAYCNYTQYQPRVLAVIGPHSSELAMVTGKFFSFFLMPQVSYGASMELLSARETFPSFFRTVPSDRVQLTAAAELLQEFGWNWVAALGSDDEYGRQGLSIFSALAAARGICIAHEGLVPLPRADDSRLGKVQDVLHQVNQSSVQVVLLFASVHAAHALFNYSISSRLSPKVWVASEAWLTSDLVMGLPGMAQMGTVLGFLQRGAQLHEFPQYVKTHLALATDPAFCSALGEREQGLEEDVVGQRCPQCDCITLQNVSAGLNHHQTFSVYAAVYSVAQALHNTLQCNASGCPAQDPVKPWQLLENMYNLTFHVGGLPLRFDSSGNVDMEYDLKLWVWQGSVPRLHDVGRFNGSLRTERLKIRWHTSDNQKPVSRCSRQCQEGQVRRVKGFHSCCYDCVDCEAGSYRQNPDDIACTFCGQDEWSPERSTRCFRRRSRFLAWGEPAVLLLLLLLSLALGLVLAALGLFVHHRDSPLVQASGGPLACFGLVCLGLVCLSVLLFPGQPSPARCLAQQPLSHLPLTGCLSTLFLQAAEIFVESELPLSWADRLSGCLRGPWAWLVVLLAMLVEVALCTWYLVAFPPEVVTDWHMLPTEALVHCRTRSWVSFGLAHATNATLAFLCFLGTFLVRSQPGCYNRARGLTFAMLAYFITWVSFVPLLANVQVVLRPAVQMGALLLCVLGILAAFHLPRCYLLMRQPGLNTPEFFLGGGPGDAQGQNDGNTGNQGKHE
Experiment: In vitro hT1R2/hT1R3 sweet taste receptor activation assay (FLIPR, dose response)
Assay type: cell-based
Description: An HEK293 cell line derivative (see Chandrashekar, J., Mueller, K. L., Hoon, M. A., Adler, E., Feng, L., Guo, W., Zuker, C. S., Ryba, N. J.,. Cel,l 2000, 100, 703-711.) that stably expresses Gα15 and hT1R2/hT1R3 (see Li, X., Staszewski, L., Xu, H., Durick, K., Zoller, M., Adler, E. Proc Natl Acad Sci USA 2002, 99, 4692-4696, and PCT Publication No. WO 03/001876) was used to identify compounds with sweet taste enhancing properties. These references are hereby incorporated herein by reference for their methods of preparing and maintaing the cell lines discussed below, and for their methods for screeing compounds that inhibit the biological receptors.
Compounds covered in this document were initially selected based on their activity on the hT1R2/hT1R3—HEK293-Gα15 cell line (Li, et al. vide supra). Activity was determined using an automated fluorometric imaging assay on a FLIPR instrument (Fluorometric Intensity Plate Reader, Molecular Devices, Sunnyvale, Calif.) (designated FLIPR assay). Cells from one clone (designated S-9 cells) were seeded into 384-well plates (at approximately 50,000 cells per well) in a medium containing DMEM Low Glucose (Invitrogen, Carlsbad, Calif.), 10% dialyzed fetal bovine serum (Invitrogen, Carlsbad, Calif.), 100 Units/ml Penicillin G, and 100 μg/ml Streptomycin (Invitrogen, Carlsbad, Calif.) (Li, et al. vide supra) see also World Patent No. WO 03/001876 A2). S-9 cells were grown for 24 hours at 37° C. S-9 cells were then loaded with the calcium dye Fluo-3AM (Molecular Probes, Eugene, Oreg.), 4 μM in a phosphate buffered saline (D-PBS) (Invitrogen, Carlsbad, Calif.), for 1 hour at room temperature. After replacement with 25 μl D-PBS, stimulation was performed in the FLIPR instrument and at room temperature by the addition of 25 μl D-PBS supplemented with different stimuli at concentrations corresponding to twice the desired final level. Receptor activity was quantified by determining the maximal fluorescence increases (using a 480 nm excitation and 535 nm emission) after normalization to basal fluorescence intensity measured before stimulation.
For dose-responses analysis, stimuli were presented in duplicates at 10 different concentrations ranging from 60 nM to 30 μM. Activities were normalized to the response obtained with 400 mM D-fructose, a concentration that elicits maximum receptor response. EC50s were determined using a non-linear regression algorithm (using a Senomyx, Inc. software), where the Hill slope, bottom asymptotes and top asymptotes were allow to vary. Identical results were obtained when analyzing the dose-response data using commercially available software for non-linear regression analysis such as GraphPad PRISM (San Diego, Calif.).

[1] = read-out: EC50 for activation of a hT1R2/hT1R3 sweet receptor

| EC50 (read-out: Sweet EC50) [nM] | EC50 [1] [nM] | SMILES |
| --- | --- | --- |
| 180 |  | C=COc1ccc(NC(=S)NCc2ccc[nH]2)cc1 [Example B15] |
| 160 |  | C=CCOc1ccc(NC(=S)NCc2ccc[nH]2)cc1 [Example B14] |
| 790 |  | S=C(NCc1ccc[nH]1)Nc1ccc2c(c1)CCC2 [Example B23] |
| 7000 |  | C#Cc1ccc(NC(=S)NCc2cccs2)cc1 [Example B36] |
| 2590 |  | CC(C)Oc1ccc(NC(=S)NCc2cccn2C)cc1 [Example B2] |
| 1380 |  | CC(C)Oc1ccc(NC(=S)NCc2nccs2)cc1 [Example B3] |
| 3860 |  | CC(C)Oc1ccc(NC(=S)NCc2ccno2)cc1 [Example B30] |
| 8170 |  | S=C(NCc1ccc[nH]1)Nc1ccc(N2CCOCC2)cc1 [Example B38] |
|  | 230 | CCOc1ccc(NC(=S)NCc2ccoc2)cc1 [Example 8, 1-(4-ethoxyphenyl)-3-(furan-3-ylmethyl)thiourea] |
|  | 120 | CC(C)Oc1ccc(NC(=S)NCc2cccs2)cc1 [Example 5, 1-(4-Isopropoxyphenyl)-3-(thiophen-2-ylmethyl)thiourea] |
| 4160 |  | CCOc1ccc(NC(=S)NCc2sccc2C)cc1 [Example B31] |
| 5960 |  | CCCCc1ccc(NC(=S)NCc2ccc[nH]2)cc1 [Example B34] |
| 1510 |  | CCCOc1ccc(NC(=S)NCc2ccco2)cc1 [Example B5] |
|  | 1700 | CCOc1ccc(NC(=S)NCc2ccco2)cc1 [Example 7, 1-(4-ethoxyphenyl)-3-(furan-2-ylmethyl)thiourea] |
| 590 |  | FC(F)(F)Oc1ccc(NC(=S)NCc2ccc[nH]2)cc1 [Example B20] |
|  | 750 | CC(C)c1ccc(NC(=S)NCc2ccoc2)cc1 [Example 10, 1-(furan-3-ylmethyl)-3-(4-isopropylphenyl)thiourea] |
| 8000 |  | COc1ccc(Cl)cc1S(=O)(=O)NCc1ccco1 [Example B49] |
| 670 |  | FC(F)(F)c1ccc(NC(=S)NCc2ccc[nH]2)c(Cl)c1 [Example B22] |
| 1530 |  | S=C(NCc1cccs1)Nc1ccc(-n2cccn2)cc1 [Example B26] |
|  | 2410 | COc1ccc(CNc2ccccc2F)cc1O [Example 16, 5-((2-fluorophenylamino)methyl)-2-methoxyphenol] |
| 1880 |  | CCc1ccc(NC(=S)NCc2ccoc2)cc1 [Example B6] |
| 1440 |  | CCOc1ccc(NC(=S)NCc2coc(C)c2)cc1 [Example B4] |
| 1290 |  | CCn1cccc1CNC(=S)Nc1ccc(OC(C)C)cc1 [Example B13] |
| 210 |  | CCSc1ccc(NC(=S)NCc2ccc[nH]2)cc1 [Example B16] |
| 14200 |  | CC(C)Oc1ccc(NC(=S)NCc2ccncc2)cc1 [Example B41] |
|  | 2290 | COc1ccc(CNc2ccc(F)cc2C)cc1O [Example 13, 5-((4-fluoro-2-methylphenylamino)methyl)-2-methoxyphenol] |

| EC50 (read-out: Sweet EC50) [nM] | EC50 [1] [nM] | SMILES |
| --- | --- | --- |
| 1500 |  | CN(C)c1ccc(NC(=S)NCc2cccs2)cc1 [Example B25] |
| 2190 |  | CCCCOc1ccc(S(=O)(=O)Nc2cccnc2)cc1 [Example B46] |
| 260 |  | COc1cc(OC)c(CNC(=S)Nc2ccc(OC(C)C)cc2)c(OC)c1 [Example B1] |
| 2940 |  | COC(=O)c1ccc(NC(=S)NCc2cccs2)cc1 [Example B29] |
|  | 2320 | COc1ccc(CNc2c(F)cc(F)cc2F)cc1O [Example 15, 2-methoxy-5-((2,4,6-trifluorophenylamino)methyl)phenol] |
|  | 550 | CC(C)Oc1ccc(NC(=S)NCc2ccco2)cc1 [Example 6, 1-(4-Isopropoxyphenyl)-3-(furan-2-ylmethyl)thiourea] |
| 7450 |  | CC(=O)c1ccc(NC(=S)NCc2ccoc2)cc1 [Example B37] |
| 220 |  | CC(C)Oc1ccc(NC(=S)NCc2cccs2)cn1 [Example B11] |
|  | 1000 | CC(C)Oc1ccc(NC(=S)NCc2ccccc2)cc1 [Example 11] |
| 1910 |  | CCOc1ccc(NC(=S)NCc2ccc(C)o2)cc1 [Example B28] |
| 2180 |  | COc1c(S(=O)(=O)NCc2ccncc2)ccc(Cl)c1Cl [Example B45] |
| 8500 |  | OCCSc1ccc(NC(=S)NCc2ccc[nH]2)cc1 [Example B39] |
| 430 |  | CSc1ccc(NC(=S)NCc2ccc[nH]2)cc1 [Example B19] |
| 310 |  | S=C(NCc1ccc[nH]1)Nc1ccc2c(c1)OCCO2 [Example B17] |
| 7970 |  | COC(=O)COc1ccc(S(=O)(=O)Nc2ccc3c(c2)OCCO3)cc1 [Example B48] |
| 410 |  | S=C(NCc1ccc[nH]1)Nc1ccc(SC2CC2)cc1 [Example B18] |
| 630 |  | CC(C)Nc1ccc(NC(=S)NCc2ccc[nH]2)cc1 [Example B21] |
| 1890 |  | Cc1cc(CNC(=S)Nc2ccc(OC(C)C)cc2)no1 [Example B7] |
| 11600 |  | S=C(NCc1ccoc1)Nc1ccc2c(c1)OCO2 [Example B40] |
| 160 |  | CCOc1ccc(NC(=S)NCc2ccc[nH]2)cc1 [Example B10] |
| 6710 |  | CC(C)Oc1ccc(NC(=S)NCc2cccnc2)cc1 [Example B35] |
| 340 |  | CC(C)Oc1ccc(NC(=S)NCc2ccc[nH]2)cn1 [Example B12] |
| 760 |  | Cc1cc(C)c(S(=O)(=O)NCc2ccncc2)c(C)c1 [Example B43] |
| 1710 |  | CC(C)(C)c1ccc(NC(=S)NCc2ccc[nH]2)cc1 [Example B27] |
|  | 25 | CC(C)Oc1ccc(NC(=S)NCc2ccc[nH]2)cc1 [Example 19, 1-((1H-pyrrol-2-yl)methyl)-3-(4-isopropoxyphenyl)thiourea] |
| 5190 |  | COc1ccc(NC(=S)NCc2ccc[nH]2)c(C)c1 [Example B32] |

| SMILES | EC50 (read-out: Sweet EC50) [nM] | EC50 [1] [nM] |
| --- | --- | --- |
| CCC(C)Oc1ccc(NC(=S)NCc2ccco2)cc1 (centres unmarked) [Example 9, 1-(4-sec-Butoxy-phenyl)-3-furan-2-ylmethyl-thiourea] |  | 5300 |
